The record followed here is patent publication US5441956A, “Hydroisoquinoline derivatives” (Smithkline Beecham Farmaceutici S.p.A., priority 1991, dated 1995).

Assay [1] deals with T1, μ opioid receptor (mu sites) (Cavia porcellus, UniProt A0ACM8Q262).
T1 construct: 3H-DAGO (DAMGO) displacement
The experiment in a line: Binding to mu sites (3H-DAGO). The conditions noted are these: guinea pig brain homogenate, 40 min at 25° C. As to the method:
(§1) Radio receptor binding to delta, mu and kappa sites is performed on fresh guinea pig brain homogenates prepared according to Kosterlitz (1981). Whole brain, without cerebellum is homogenized in 50 mM Tris-buffer and centrifuged at 49,000×g for 10 min.
(§2) The pellet is then resuspended in the s3me buffer, incubated at 37° C. for 45 min. and centrifuged again.
(§3) 1.9 ml of the final homogenate (1:100 in Tris-pH 7.4 0° C.) is used for the binding assay.
Binding to mu sites (Magnan J., 1982)
^3 H-[D-Ala^2, MePhe^4, Gly-Ol^5 ]Enkephalin (^3 H-DAGO), an enkephalin analogue that binds selectively to mu receptor, is added to the biological substrate and incubated at 25° C. for 40 min, filtered through Whatman GF-C filters and washed with ice-cold Tris buffer. The filters are then dried, solubilized in Filtercount and the radioactivity monitored. Non-specific binding is determined in the presence of 10^-6 M naloxone.

The target of assay [2] is T2, κ opioid receptor (kappa sites) (Cavia porcellus, UniProt P41144).
T2 construct: performed on fresh guinea pig brain homogenates; from tissue; host or cells: guinea pig whole brain without cerebellum, washed membrane homogenate
T2 sequence (P41144 whole entry): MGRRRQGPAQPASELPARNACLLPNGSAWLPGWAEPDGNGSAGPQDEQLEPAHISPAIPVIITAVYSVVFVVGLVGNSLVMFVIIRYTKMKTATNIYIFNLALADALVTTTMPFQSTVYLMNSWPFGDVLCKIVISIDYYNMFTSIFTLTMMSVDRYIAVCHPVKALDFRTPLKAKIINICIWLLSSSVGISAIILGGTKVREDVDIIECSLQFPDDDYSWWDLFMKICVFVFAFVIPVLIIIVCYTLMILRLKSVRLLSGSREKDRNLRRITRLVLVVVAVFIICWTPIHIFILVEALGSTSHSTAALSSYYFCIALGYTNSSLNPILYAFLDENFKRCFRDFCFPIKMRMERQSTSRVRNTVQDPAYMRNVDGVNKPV
As to the kind of experiment: Binding to kappa sites (3H-BRL 52537A). The conditions noted are these: guinea pig brain homogenate, 40 min at 25° C. On the procedure:
as §1, §2, §3
Final homogenate with solutions of the cold ligand and of the labelled ligand is incubated for 40 min. at 25° C., filtered through Whatman GF-C glass filter discs and washed. The radioactivity bound to the filters is counted by liquid scintillation spectrophotometry.

Assay [3] concerns mice (Male Charles River, Swiss Strain). As to the kind of experiment: Antinociception, tail-flick test in mice. Format: in vivo, mouse. The conditions noted are these: i.t., 10 min pretreatment. As to the method: The methodology employed is based on that described by D'Amour and Smith, J. Pharmacol. Exp. Ther. 72, 74 (1941).
Male Charles River mice (Swiss Strain) 29-35 g body weight are used.
Animals are allowed food and water ad libitum and are randomized into groups of 10 prior to experimentation.
Test compounds are dissolved in either distilled water or distilled water plus 0.1M AMS and administered by the intrathecal route in a final volume of 5 μl/mouse, according to the method described by Hylden and Wilcox, Eur. J. Pharmacol. 67,313 (1980).
Four hours prior the beginning of experiments, mice are anaesthetized with pentobarbital (80 mg/Kg i.p.) and a caudal cutaneous incision (1 cm) is performed on the back using a disposable 30 gauge 1/2 inch needles mated to a 50 μl luer siringe (Hamilton). The drug are delivered intrathecally between L5 and L6 of spinous process.
Control animals receive […] of the appropriate vehicle alone. Following a pretreatment period of 10 min., the mice are again placed under the heat source and the reaction time redetermined.
Percentage quantal protection is determined as the number of mice in which the reaction time is doubled compared to pretreatment values, expressed as a percentage of the total number of mice in the group.
A general note: Thermal pain tests record how soon the animal reacts.

In assay [4] the target is T3, δ opioid receptor (delta sites) (Cavia porcellus, UniProt A0A286XTF2).
T3 construct: performed on fresh guinea pig brain homogenates; from tissue; host or cells: guinea pig whole brain without cerebellum, washed membrane homogenate
T3 sequence (A0A286XTF2 1-366): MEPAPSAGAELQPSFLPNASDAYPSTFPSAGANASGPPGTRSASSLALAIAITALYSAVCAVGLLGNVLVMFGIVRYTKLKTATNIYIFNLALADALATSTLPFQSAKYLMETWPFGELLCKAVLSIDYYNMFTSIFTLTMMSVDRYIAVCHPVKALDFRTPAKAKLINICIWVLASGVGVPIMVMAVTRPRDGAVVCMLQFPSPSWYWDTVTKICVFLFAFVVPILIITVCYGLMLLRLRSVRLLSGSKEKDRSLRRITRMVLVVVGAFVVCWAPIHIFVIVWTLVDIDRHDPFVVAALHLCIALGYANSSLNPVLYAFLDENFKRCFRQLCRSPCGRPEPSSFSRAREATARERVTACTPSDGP
As to the kind of experiment: Binding to delta sites (radioreceptor binding, 3H-DADLE with unlabelled DAGO). The conditions noted are these: guinea pig brain homogenate, 3H-DADLE + 30 nM DAGO, 40 min at 25° C. As to the method:
as §1, §2, §3
For binding experiments, ^3 H-DADLE, which binds to mu and delta sites, is used in the presence of 30 nM of unlabelled DAGO to prevent mu binding. A concentration of radioligand near KD is used in the binding assays evaluating compounds of the invention. Non-specific binding is determined by addition of Mr 2266, 2.5 μM. The tubes are incubated for 40 min at 25° C. and bound ligand is separated from free by filtration through Whatman GF-G filters. The level of bound radioactivity on the filters is measured by liquid scintillation after solubilization in filtercount. The equilibrium dissociation constant (KD) and the maximum binding capacity (Bmax) are determined from the analysis of saturation curves, while the inhibition constant (Ki) is determined from the analysis of competition experiments (Hill 1910; Scatchard 1949; Cheng and Prusoff 973; Gillan et al 1980).

Counter-ions that a name gives are not always drawn.

As a reminder, the Ki is a measure of affinity in units of concentration, obtained from inhibition or displacement.

T1 sequence (A0ACM8Q262 1-400): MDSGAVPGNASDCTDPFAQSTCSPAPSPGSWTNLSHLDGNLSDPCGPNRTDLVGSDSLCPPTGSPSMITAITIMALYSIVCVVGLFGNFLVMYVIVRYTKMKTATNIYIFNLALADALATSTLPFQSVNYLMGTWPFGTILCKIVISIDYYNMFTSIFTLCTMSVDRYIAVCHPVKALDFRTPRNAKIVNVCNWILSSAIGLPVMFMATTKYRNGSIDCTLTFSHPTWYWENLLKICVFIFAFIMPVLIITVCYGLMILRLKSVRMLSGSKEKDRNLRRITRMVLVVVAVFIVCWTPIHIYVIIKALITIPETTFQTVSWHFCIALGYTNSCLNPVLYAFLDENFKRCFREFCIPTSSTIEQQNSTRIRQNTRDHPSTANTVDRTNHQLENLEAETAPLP

On to `CCN1CC[C@]2(c3cccc(O)c3)Cc3[nH]c4ccccc4c3C[C@H]2C1` (relative stereo) [Example 1, 2-ethyl-4aα-(3-hydroxyphenyl)-1,2,3,4,4a,5,11,11aβ-octahydro indolo[2,3-g]isoquinoline hydrochloride], for which the results for the Ki in assay [1], in assay [2] and in assay [4] were 2070 nM, greater than 1000 nM and 16.4 nM, respectively. Also, the “Antinociception Mouse Tail-Flick ED50” value in assay [3] was found to be 0.010 mg/mouse.

For the compound `CN1CC[C@]2(c3cccc(O)c3)Cc3[nH]c4ccccc4c3C[C@H]2C1` (relative stereo) [Example 5, 2-Methyl-4aα-(3-hydroxyphenyl)-1,2,3,4,4a,5,11,11aβ-octahydroindolo[2,3-g]isoquinoline hydrochloride], the results for the Ki in assay [1], in assay [2] and in assay [4] were 309 nM, greater than 1000 nM and 16 nM, respectively.

`CN1CC[C@]2(c3cccc(O)c3)Cc3c(c4ccccc4n3C)C[C@H]2C1` (relative stereo) [Example 7, 2,6-Dimethyl-4aα-(3-hydroxyphenyl)-1,2,3,4,4a,5,11,11aβ-octahydroindolo[2,3-g]isoquinoline]: the Ki was 306 nM in assay [1], greater than 1000 nM in assay [2] and 33.6 nM in assay [4].

Take `CN1CC[C@]2(c3cccc(O)c3)Cc3oc4ccccc4c3C[C@H]2C1` (relative stereo) [Example 10, 2-Methyl-4aα-(3-hydroxyphenyl)-1,2,3,4,4a,5, 11, 11aβ-octahydrobenzofuro[2,3-g]isoquinoline]: the inhibitory constant (Ki) in assay [1] was 104 nM; in assay [2], greater than 1000 nM; in assay [4], 10.1 nM.

Consider `Cc1ccc2[nH]c3c(c2c1)C[C@H]1CN(C)CC[C@]1(c1cccc(O)c1)C3` (relative stereo) [Example 12, 2,9-Dimethyl-4aα-(3-hydroxyphenyl)-1,2,3,4,4a,5,11,11aβ-octahydroindolo[2,3-g]isoquinoline], for which the Ki in assay [1] was 678 nM; in assay [2], greater than 1000 nM; in assay [4], 61.9 nM.

As for `CN1CC[C@]2(c3cccc(O)c3)Cc3[nH]c4c(Cl)cccc4c3C[C@H]2C1` (relative stereo) [Example 16, 2-Methyl-4aα-(3-hydroxyphenyl)-7-chloro-1,2,3,4,4a,5,11,11aβ-octahydroindolo[2,3-g]isoquinoline], the Ki in assay [1] was 568 nM; in assay [2] it was greater than 1000 nM; in assay [4], 16.4 nM.

Regarding `CCN1CC[C@]2(c3cccc(O)c3)Cc3[nH]c4ccccc4c3C[C@H]2C1` (single isomer, unassigned) [Example 39, (+)-2-Ethyl-4aα-(3-hydroxyphenyl)-1,2,3,4,4a,5,11,11aβ-octahydroindolo[2,3-g]isoquinoline hydrochloride], the Ki in assay [1] is 2260 nM; in assay [2], greater than 1000 nM; in assay [4] it was 6.24 nM.
